≈ marks a conversion by molar mass, not a printed value.
Tests used:
Assay in all cases: Microdilution MIC assay (NCCLS M7-A)
Type in all cases: cell-based
[1] = test system: Stenotrophomonas maltophilia GN 12873; settings: strain GN12873
Method: (§1) The antibacterial activity was tested by a microdilution assay according to National Committee for Clinical Laboratory Standards, 1998, Methods for dilution antimicrobial susceptibility tests for bacteria that grow aerobically, Approved standard M7-A, NCCLS, Villanova, Pa.
(§2) The minimal inhibition concentrations (MICs) were determined for the following bacterial strains: The Gram-negative strains Pseudomonas aeruginosa SG 137, ATCC 27853, Escherichia coli ATCC 25922, Klebsiella pneumoniae ATCC 10031, Stenotrophomonas maltophilia GN 12873, Serratia marcescens SG 621 as well as for the Gram-positive strain Staphylococcus aureus SG 511.

[2] = test system: Pseudomonas aeruginosa ATCC 27853; settings: strain ATCC 27853
Method: as §1, §2

[3] = test system: Serratia marcescens SG 621; settings: strain SG621
Method: as §1, §2

[4] = test system: Escherichia coli ATCC 25922; settings: strain ATCC 25922
Method: as §1, §2

[5] = test system: Pseudomonas aeruginosa SG 137; settings: strain SG137
Method: as §1, §2

[6] = test system: Klebsiella pneumoniae ATCC 10031; settings: strain ATCC10031
Method: as §1, §2

[7] = test system: Staphylococcus aureus SG 511; settings: strain SG511
Method: as §1, §2

| SMILES | MIC Stenotroph. maltoph. GN12873 [1] [µg/mL] | MIC Pseudomonas aeruginosa ATCC 27853 [2] [µg/mL] | MIC Serratia marc. SG621 [3] [µg/mL] | MIC E. coli ATCC 25922 [4] [µg/mL] | MIC Pseudomonas aeruginosa SG137 [5] [µg/mL] | MIC Klebsiella pneumoniae ATCC10031 [6] [µg/mL] | MIC Staph. aureus SG511 [7] [µg/mL] |
| --- | --- | --- | --- | --- | --- | --- | --- |
| COC(=O)Oc1cccc(C(=O)N(C)CCCN(CC(=O)NC(C(=O)NC2C(=O)N3C2SC(C)(C)C3C(=O)O)c2ccccc2)C(=O)c2cccc(OC(=O)OC)c2OC(=O)OC)c1OC(=O)OC (centres unmarked) [Example 1, N-[3,7-Bis-(2,3-dimethoxycarbonyloxybenzoyl)-3,7-diaza-octanoyl]-ampicillin] | 0.062 (≈ 0.0631 µM) | 0.031 (≈ 0.0316 µM) | 0.078 (≈ 0.0794 µM) | 0.062 (≈ 0.0631 µM) | 0.031 (≈ 0.0316 µM) | 0.008 (≈ 0.00815 µM) | 10 (≈ 10.2 µM) |
| CC(=O)Oc1cccc(C(=O)NCCCCCCN(CCCCCCN(CC(=O)NC(C(=O)NC2C(=O)N3C2SC(C)(C)C3C(=O)O)c2ccccc2)C(=O)c2cccc(OC(C)=O)c2OC(C)=O)C(=O)c2cccc(OC(C)=O)c2OC(C)=O)c1OC(C)=O (centres unmarked) [Example 2, N-[3,10,17-Tris-(2,3-diacetoxybenzoyl)-3,10,17-triaza-heptadecanoyl]-ampicillin] |  | 3.125 (≈ 2.47 µM) |  | 0.4 (≈ 0.316 µM) | <0.05 | 0.4 (≈ 0.316 µM) | 6.25 (≈ 4.94 µM) |
| COC(=O)Oc1cccc(C(=O)N(CCN(CCn2c(=O)oc3c(OC(=O)OC)cccc3c2=O)CCn2c(=O)oc3c(OC(=O)OC)cccc3c2=O)CC(=O)NC(C(=O)NC2C(=O)N3C2SC(C)(C)C3C(=O)O)c2ccccc2)c1OC(=O)OC (centres unmarked) [Example 3, N-[6-Bis[2-(8-methoxycarbonyloxy-benzoxazin-2,4-dion-3-yl)-ethyl]-3-[2,3-di-(methoxycarbonyloxy)-benzoyl]-3,6-diaza-hexanoyl]-ampicillin] | 0.4 (≈ 0.326 µM) | 0.78 (≈ 0.635 µM) | 0.2 (≈ 0.163 µM) | 0.2 (≈ 0.163 µM) | 0.1 (≈ 0.0814 µM) | <0.05 | 12.5 (≈ 10.2 µM) |
| CC(=O)Oc1cccc(C(=O)NCCCCCCN(CCCCCCN(CC(=O)NC(C(=O)NC2C(=O)N3C(C(=O)O)=C(Cl)CSC23)c2ccccc2)C(=O)c2cccc(OC(C)=O)c2OC(C)=O)C(=O)c2cccc(OC(C)=O)c2OC(C)=O)c1OC(C)=O (centres unmarked) [Example 4, N-[3,10,17-Tris-(2,3-diacetoxybenzoyl)-3,10,17-triaza-heptadecanoyl]-cefaclor] | 50 (≈ 38.9 µM) | 1.56 (≈ 1.22 µM) |  | 0.2 (≈ 0.156 µM) | 0.2 (≈ 0.156 µM) | <0.05 | 6.25 (≈ 4.87 µM) |
| CCOC(=O)OC(C)OC(=O)[C@@H]1N2C(=O)[C@@H](NC(=O)[C@H](NC(=O)CN(CCCCCCN(CCCCCCNC(=O)c3cccc(OC(C)=O)c3OC(C)=O)C(=O)c3cccc(OC(C)=O)c3OC(C)=O)C(=O)c3cccc(OC(C)=O)c3OC(C)=O)c3ccccc3)[C@H]2SC1(C)C (some centres unmarked) [Example 5, N-[3,10,17-Tris-(2,3-diacetoxybenzoyl)-3,10,17-triaza-heptadecanoyl]-bacampicillin] | 50 (≈ 36.2 µM) | 25 (≈ 18.1 µM) | 0.4 (≈ 0.29 µM) | 100 (≈ 72.4 µM) | 25 (≈ 18.1 µM) | 0.2 (≈ 0.145 µM) |  |
| CC(=O)Oc1cccc(C(=O)NCCCN(CCCN(CC(=O)NC(C(=O)NC2C(=O)N3C2SC(C)(C)C3C(=O)O)c2ccccc2)C(=O)c2cccc(OC(C)=O)c2OC(C)=O)C(=O)c2cccc(OC(C)=O)c2OC(C)=O)c1OC(C)=O (centres unmarked) [Example 6, N-[3,7,11-Tris-(2,3-diacetoxybenzoyl)-3,7,11-triaza-undecanoyl]-ampicillin] | 0.4 (≈ 0.339 µM) | 1.56 (≈ 1.32 µM) | 0.78 (≈ 0.66 µM) | 1.56 (≈ 1.32 µM) | 0.2 (≈ 0.169 µM) | 0.1 (≈ 0.0847 µM) | 6.25 (≈ 5.29 µM) |
| COC(=O)Oc1cc(Cl)cc(C(=O)N(C)CCCN(CC(=O)NC(C(=O)NC2C(=O)N3C2SC(C)(C)C3C(=O)O)c2ccccc2)C(=O)c2cc(Cl)cc(OC(=O)OC)c2OC(=O)OC)c1OC(=O)OC (centres unmarked) [Example 7, N-[3,7-Bis-(5-chlor-2,3-dimethoxycarbonyloxybenzoyl)-3,7-diaza-octanoyl]-ampicillin] | 0.02 (≈ 0.019 µM) | 0.1 (≈ 0.0952 µM) | 0.02 (≈ 0.019 µM) | 0.05 (≈ 0.0476 µM) | <0.005 | <0.005 | 12.5 (≈ 11.9 µM) |
| COC(=O)Oc1cc(Br)cc(C(=O)N(C)CCCN(CC(=O)NC(C(=O)NC2C(=O)N3C2SC(C)(C)C3C(=O)O)c2ccccc2)C(=O)c2cc(Br)cc(OC(=O)OC)c2OC(=O)OC)c1OC(=O)OC (centres unmarked) [Example 8, N-{3,7-Bis-[5-brom-2,3-di-(methoxycarbonyloxy)-benzoyl]-3,7-diaza-octanoyl}-ampicillin] | 0.02 (≈ 0.0175 µM) | 0.05 (≈ 0.0439 µM) | 0.02 (≈ 0.0175 µM) | <0.005 | <0.005 | <0.005 | 6.25 (≈ 5.48 µM) |
| CC(=O)Oc1cccc(C(=O)N(C)CCCN(CC(=O)N[C@@H](C(=O)N[C@@H]2C(=O)N3[C@@H]2SC(C)(C)[C@@H]3C(=O)O)c2ccccc2)C(=O)c2cccc(OC(C)=O)c2OC(C)=O)c1OC(C)=O [Example 9, N-[3,7-Bis-(2,3-diacetoxybenzoyl)-3,7-diaza-octanoyl]-ampicillin] | 0.02 (≈ 0.0218 µM) | 0.08 (≈ 0.0872 µM) | 0.05 (≈ 0.0545 µM) | 0.02 (≈ 0.0218 µM) | 0.005 (≈ 0.00545 µM) | <0.005 | 3.12 (≈ 3.4 µM) |
| CC(=O)Oc1cccc(C(=O)NCCCCN(CC(=O)N[C@@H](C(=O)N[C@@H]2C(=O)N3[C@@H]2SC(C)(C)[C@@H]3C(=O)O)c2ccccc2)C(=O)c2cccc(OC(C)=O)c2OC(C)=O)c1OC(C)=O [Example 10, N-[3,8-Bis-(2,3-diacetoxybenzoyl)-3,8-diaza-octanoyl]-ampicillin] | <0.005 | 0.05 (≈ 0.0545 µM) | <0.005 | <0.005 | <0.005 | <0.005 | 3.12 (≈ 3.4 µM) |
| CC(=O)Oc1cccc(C(=O)NCCCCN(CC(=O)NC(C(=O)NC2C(=O)N3C2SC(C)(C)C3C(=O)O)c2ccc(O)cc2)C(=O)c2cccc(OC(C)=O)c2OC(C)=O)c1OC(C)=O (centres unmarked) [Example 11, N-[3,8-Bis-(2,3-diacetoxybenzoyl)-3,8-diaza-octanoyl]-amoxicillin] | <0.005 | 0.1 (≈ 0.107 µM) | <0.005 | 0.01 (≈ 0.0107 µM) | 0.01 (≈ 0.0107 µM) | <0.005 | 3.12 (≈ 3.34 µM) |
| COC(=O)Oc1cc(Cl)c(Cl)c(C(=O)N(C)CCCN(CC(=O)NC(C(=O)NC2C(=O)N3C2SC(C)(C)C3C(=O)O)c2ccccc2)C(=O)c2c(Cl)c(Cl)cc(OC(=O)OC)c2OC(=O)OC)c1OC(=O)OC (centres unmarked) [Example 12, N-{3,7-Bis-(2,3-dichlor-5,6-di-methoxycarbonyloxy-benzoyl)-3,7-diaza-octanoyl}-ampicillin] | 0.05 (≈ 0.0447 µM) | 0.1 (≈ 0.0893 µM) | 0.05 (≈ 0.0447 µM) | 0.02 (≈ 0.0179 µM) | 0.05 (≈ 0.0447 µM) | <0.005 | 3.12 (≈ 2.79 µM) |
